Reference: patent EP1506285B1, “COMBINATIONS OF ANTI-DR5 ANTIBODIES AND ANTI-DR4 ANTIBODIES AND OTHER THERAPEUTIC AGENTS” (UAB RESEARCH FOUNDATION, priority 2001, dated 2003)
Residues, ends and D or L forms follow the SMILES beside them. *: point of attachment. Cbz = O=C(OCc1ccccc1)*; CH2F = FC*

How the values were obtained:
[1] = system: 2LMP xenografts; assay: Analysis of apoptosis in xenografts, TUNEL; type: in vivo, Athymic nude mice; conditions: day 14; TRA-8 100 µg i.p. days 7, 10; adriamycin 3 mg/kg or paclitaxel 10 mg/kg days 8, 11
Description: One group of mice was untreated. The xenografts were dissected for the study of apoptosis on day 14 after tumor cell injection. The reason for the substantial reduction in treatment intensity compared to our standard treatment protocol was to allow adequate tumor tissue for analysis on day 14. Tunel assay for apoptosis in tumor xenografts was performed as follows. Five-micron paraffin sections of tissue were mounted on Superfrost/Plus slides and heated at 58°C for 1 h. Tissue sections were deparaffinized in three changes of xylene and rehydrated with one change of absolute ethanol, 95% ethanol, and 70% ethanol, each in 5-min increments. Then, the sections were placed in Tris-buffered saline (0.5M Tris base, 0.15 M NaCl, 0.0002% Triton X-100, pH 7.6). Apoptotic nuclei were detected using an Apop Tag Peroxidase kit (Intergen, Purchase, NY). Proteinase K (20 µg/ml in distilled deionized H2O) was added to the tissue specimens and incubated at room temperature for 15 min. Endogenous peroxidases were quenched with an aqueous solution of 3% hydrogen peroxide for 5 min. Sections were treated with an equilibration buffer for 3 0 min and then incubated with the TdT/enzyme (diluted in labeling reaction mix) for 1 h at 37°C using parafilm covers. During this incubation, the TdT enzyme binds the 3'-OH ends of DNA fragments and catalyzes the addition of digoxigenin-labeled and unlabeled deoxynucleotides. Negative controls were incubated with distilled H2O (diluted in labeling reaction mix) instead of the TdT enzyme. A stop buffer was added for 10 min at room temperature to terminate the labeling reaction. An anti-digoxigenin conjugate was added to each slide for 30 min. The chromagen 3,3' DAB was used to visualize the labeled 3' OH end of DNA fragments. The slides were then rinsed in deionized water and lightly counterstained with hematoxylin, dehydrated using graded alcohols and xylene and coverlsipped using Permount. Approximately 10 random fields were evaluated for percentage of Tunel stained and percentage of intensely stained apoptotic bodies throughout the tissue.

[2] = system: 2LMP s.c. tumors; assay: TRA-8 therapy alone or with chemotherapy or radiation, breast cancer xenografts; type: in vivo, Athymic nude mice
Description: Athymic nude mice were injected s.c. with 3 x 10^7 2LMP cells. […] The growth of tumors was monitored over time. […] Tumor size and regression rates were determined.
Data from 6 independent experiments were analyzed by individual experiment. Treatment combinations were compared with respect to in vivo anti-tumor efficacy, i.e., inhibition of tumor growth, which was measured as three endpoints; extension of tumor doubling times, percentage of tumor regressions, and growth rates over time. The actual number of days at which the tumor doubled in surface area (product of two diameters) relative to baseline on day 7 after tumor cell injection was used in the doubling time analysis. The nonparametric Kruskal-Wallis test was used for median tumor doubling time comparisons between treatments. Fisher's exact test was used to compare the proportions of tumor regressions and relapse-free regressions across treatment groups. To determine if any combination therapy produced significant synergistic inhibition of tumor growth, i.e., more than additive, the growth curves from the serial area measurements were compared using a linear mixed model approach over the first 3 weeks after start of therapy (Lindsey, J.K. Models for Repeated Measurements, pp. 100-142, Oxford, 1993). To test for synergistic effects of the combination therapies, an interaction term was included in the model. If the interaction term was significant and the effect was inhibition of growth at a rate greater than additive then the interaction was considered synergistic.
A total of 166 animals, 10 treatment groups, and 6 independent experiments were included in the aggregate analysis. Treatment combinations were compared with respect to in vivo anti-tumor efficacy. The median tumor doubling times were analyzed using the Kruskal-Wallis test and Fisher's exact test was used to compare the proportions of tumor regressions and relapse-free regressions across treatment groups.

[3] = target: human DR5/hIgG1 fusion protein (residues 1-180 of the extracellular portion of DR5 fused to the constant region of human IgG1; immunogen, ~50 kDa) (human) (UniProt O14763); assay: ELISA on DR5-Ig, one-site binding model of non-linear regression
[4] = system: Jurkat cells; assay: Cell viability / apoptosis induction in Jurkat cells; type: cell-based, human; conditions: 50 ng/ml TRA-8 overnight
Description: Cell viability is determined using (1) the ATPLite kit according to the manufacturer's instructions (Packard Instruments, Meriden, CT); (2) the MTT Cell proliferation/viability kit (Sigma); or (3) PI staining of dead cells and analyzed by flow cytometry. At end of culture, cells are stained with 10 µg/ml PI and PI negative cells are gated as viable cells. For analysis of condensed nuclei of hepatocytes, cells are stained with 10 ng/ml […] (Molecular Probes) and analyzed by flow cytometry.

[5] = system: CLL B cells; assay: Cytotoxicity to chronic lympholytic leukemia B cells in vitro; type: cell-based, human; conditions: five patients; compared to normal primary B cells
[6] = target: T1, human DR5, full length, on cells (human, UniProt O14763 56-440); assay: radioisotope-labelled TRA-8 on a breast cancer cell line, compared with soluble TRAIL
T1 construct: whole, on cells; Used for Cos-7 cells transfected with full-length human DR5 cDNA and for human cells, cell lines and tissues that carry DR5 of their own; also called cell surface DR5; TRAIL-R2

CC(=O)O[C@H]1C(=O)[C@@]2(C)[C@H]([C@H](OC(=O)c3ccccc3)[C@]3(O)C[C@H](OC(=O)[C@H](O)[C@@H](NC(=O)c4ccccc4)c4ccccc4)C(C)=C1C3(C)C)[C@]1(OC(C)=O)CO[C@@H]1C[C@@H]2O [Paclitaxel]
intense stained cells (TUNEL) [1]: 2% | stained cells (TUNEL) [1]: 7% | complete regressions ([2]; TRA-8/paclitaxel experiment (Figure 26)): none

COc1cccc2c1C(=O)c1c(O)c3c(c(O)c1C2=O)C[C@@](O)(C(=O)CO)C[C@@H]3O[C@H]1C[C@H](N)[C@H](O)[C@H](C)O1 [Adriamycin, doxorubicin]
intense stained cells (TUNEL) [1]: 6% | stained cells (TUNEL) [1]: 8% | complete regressions of tumor ([2]; TRA-8/adriamycin experiment (Figure 25)): no complete regressions | tumor growth compared to untreated controls ([2]; TRA-8/adriamycin experiment (Figure 25), 200 µg TRA-8, adriamycin 6 mg/kg i.v.): did not differ from controls

soluble recombinant human TRAIL (FLAG-tagged, Alexis) (from UniProt P50591 95-281) (ligand)
Kd [3]: 59 nM

TRA-8 anti-human DR5 monoclonal antibody
Kd [3]: 3 nM

CC(NC(=O)C(NC(=O)OCc1ccccc1)C(C)C)C(=O)NC(CC(=O)O)C(=O)CF (stereo not drawn) [Z-VAD] (Cbz-Val-Ala-Asp-CH2F; configuration not given here)
inhibition of TRA-8-mediated cell death by caspase inhibitor [4]: completely inhibited

Cn1cc(C2=C(c3cn(CCCN)c4ccccc34)C(=O)NC2=O)c2ccccc21 [BisVIII, Bisindolylmaleimide VIII]
susceptibility of CLL B cells [5]: sensitive

B1: TRA-8 anti-human DR5 monoclonal antibody (antibody, mouse IgG1, kappa, V domains shown)
VH: EVMLVESGGGLVKPGGSLKLSCAASGFTFSSYVMSWVRQTPEKRLEWVATISSGGSYTYYPDSVKGRFTISRDNAKNTLYLQMSSLRSEDTAMYYCARRGDSMITTDYWGQGTTLTVSS
VL: DIVMTQSHKFMSTSVGDRVSITCKASQDVGTAVAWYQQKPGQSPKLLIYWASTRHTGVPDRFTGSGSGTDFTLTISNVQSEDLADYFCQQYSSYRTFGGGTKLEIKR
notes: Mouse IgG1, kappa; also called monoclonal anti-DR5 antibody (clone: TRA-8); mouse-mouse hybridoma TRA-8, ATCC PTA-1428
fold higher binding activity than soluble TRAIL [6]: ≥ 50 fold
